Experimental findings from US20130196960A1, “Cannabinoid Receptor Agonists” (Ironwood Pharmaceuticals, Inc., priority 2010, published 2013) are described below.

The term IC50 denotes the concentration needed to halve the response being measured. The term EC50 denotes the midpoint of the concentration-response curve.

For one experiment, the target named is human CB1 (Homo sapiens, UniProt P21554). The experiment can be described thus: Human CB1 cannabinoid receptor radioligand binding assay ([3H]-CP 55,940 displacement, HEK-293 membranes). The source says: (§1) cDNA expression clones for human CB1 (hCB1, Genbank Accession No. AY225225) and human CB2 (hCB2, Genbank Accession No. AY242132) expressed in vector pcDNA3.1+ were purchased from UMR cDNA Resource Center, Rolla, Mo. (Clone ID CNR01L000 for hCB1; CNR0200000 for hCB2).
Sequence of human CB1 (P21554 whole entry): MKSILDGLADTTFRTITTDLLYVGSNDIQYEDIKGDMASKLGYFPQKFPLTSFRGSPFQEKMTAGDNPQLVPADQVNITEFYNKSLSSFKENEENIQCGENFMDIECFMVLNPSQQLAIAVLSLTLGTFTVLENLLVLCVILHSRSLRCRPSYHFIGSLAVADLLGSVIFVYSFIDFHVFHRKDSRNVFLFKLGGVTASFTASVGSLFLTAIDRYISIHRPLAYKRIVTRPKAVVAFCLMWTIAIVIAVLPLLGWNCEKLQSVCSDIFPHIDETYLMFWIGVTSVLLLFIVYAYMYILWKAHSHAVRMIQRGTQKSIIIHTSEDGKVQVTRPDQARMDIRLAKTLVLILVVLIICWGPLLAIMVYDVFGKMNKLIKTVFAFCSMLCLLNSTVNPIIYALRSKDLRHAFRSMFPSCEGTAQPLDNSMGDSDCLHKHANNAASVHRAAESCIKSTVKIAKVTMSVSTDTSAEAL
(§2) Stable, HEK-293-derived cell lines that recombinantly express hCB1 or hCB2 were established. In brief, the clone hCB1 (CNR1L) or hCB2 (CNR2) was transfected into human embryonic kidney cells (HEK-293) using Lipofectamine 2000 (Gibco, Cat#11668-019) according to the manufacturer's protocol. Transfected clones were isolated by single colony purification and clones were screened for receptor expression using a whole cell, 3H-CP 55,940 radioligand binding assay. HEK-293 stable cells were maintained in Dulbecco's modified Eagles medium (DMEM) containing 10% fetal bovine serum, 2 mM L-glutamine and 0.5 mg/mL G-418.
(§3) Membranes were isolated from transfected cells as follows. Monolayers of cultured cells were washed twice with phosphate-buffered saline (PBS). Cells were scraped into 20 mM HEPES, pH 7.4, 10 mM EDTA containing complete cocktail protease inhibitors (Roche, Catalog #11 697 498 001), and were homogenized by an electric-powered mechanical probe homogenizer (Omni GLH; probe G7-195S) for 40 seconds at 7000 rpm. Homogenates were centrifuged 10 minutes at 1000×g at 4° C. The supernatant was collected and was centrifuged for 1 hour at 40,000×g. The supernatant was then decanted and the resulting pellet was re-suspended in 20 mM HEPES, pH 7.4, 5 mM MgCl2, 1 mM EDTA, 10% sucrose with complete cocktail protease inhibitors. Protein concentration of membrane suspensions were measured by Bradford Protein Assay using bovine serum albumin as the standard (BioRad catalog #500-0006). Protein concentrations of membrane suspensions were adjusted with the final buffer in the range of 5 to 10 mg/mL and were stored at −80° C. until further use.
(§4) Radioligand binding assays were performed by incubating membranes (2-10 μg protein) prepared from HEK-293 cells expressing recombinant human cannabinoid receptors, CB1 or CB2, at room temperature with 0.5 nM cannabinoid receptor agonist, [3H]-CP 55,940 (Perkin Elmer, catalog #NET1051) in 0.2 mL of binding buffer (50 mM Tris-HCl, pH 7.5, 5 mM MgCl2, 2.5 mM EDTA) and 0.1% fatty acid free bovine serum albumin (Sigma Cat. #A0821) for 90 minutes. A rapid filtration technique using Millipore FB filter plates (Catalog #MADVNOB) and filtration apparatus (Millipore system Catalog MAVM0960R) with vacuum aspiration was used to harvest and rinse labeled membranes (8 times with 0.2 mL of chilled binding buffer). The radioactivity bound to the filters was counted with 0.05 mL of liquid scintillant (UltraGold MV, PerkinElmer catalog #6013159) in a scintillation counter (Perkin Elmer Microbeta instrument). Nonspecific binding was determined in the presence of unlabeled 1 μM CP 55,940 (Sigma Aldrich, catalog #C1112). Binding data were analyzed using GraphPad Prism (GraphPad Software, Inc. San Diego, Calif.).

The target of experiment [1] is T1, human CB2 (Homo sapiens, UniProt P34972). The experiment can be described thus: Human CB2 cannabinoid receptor radioligand binding assay ([3H]-CP 55,940 displacement, HEK-293 membranes).
T1 sequence (P34972 whole entry): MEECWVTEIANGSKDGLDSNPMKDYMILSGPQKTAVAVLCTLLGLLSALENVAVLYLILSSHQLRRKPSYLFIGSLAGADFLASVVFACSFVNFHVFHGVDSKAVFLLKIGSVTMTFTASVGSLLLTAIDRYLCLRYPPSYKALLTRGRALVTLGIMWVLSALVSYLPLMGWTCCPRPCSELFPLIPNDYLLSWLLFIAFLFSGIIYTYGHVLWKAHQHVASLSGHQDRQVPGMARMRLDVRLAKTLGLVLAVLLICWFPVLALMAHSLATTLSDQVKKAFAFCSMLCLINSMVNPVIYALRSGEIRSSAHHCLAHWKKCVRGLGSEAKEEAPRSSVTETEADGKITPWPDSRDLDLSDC
Excerpt: as §1, §2, §3, §4

Experiment [2] has as its target T1, human CB2. The experiment can be described thus: 35S GTPγS binding functional assay, agonist mode, hCB2 HEK-293 membranes. In kind it is biochemical. The protocol: Functional assays which monitor G-protein coupled receptor or downstream cellular responses can be used to characterize potential CB1 receptor and/or CB2 receptor agonist or antagonist activities. Direct activation (or inhibition of activation) can be monitored using a GTPγS assay (membrane-based assay) or cAMP assay (whole cell-based assay).
^35S GTPγS binding assays were performed by incubating recombinant cell membranes prepared above (5 μg) in the presence of scintillation proximity assay beads (SPA beads, Catalog #RPNQ0252 GE Healthcare, Buckinghamshire, England) in GTPγS binding buffer [50 mM HEPES (pH 7.4), 100 mM NaCl, 5 mM MgCl2, 0.001% saponin (Sigma catalog #S4521)] supplemented with 20 uM GDP (Sigma catalog #G7127) in the presence or absence of test compound. The reaction was carried out in 96-well microplates with 0.1 nM [^35S]GTPγS (specific activity=1250 Ci/mmol; Perkin Elmer catalog #NEG030X250UC) in a final volume of 100 uL. After a 90 min room temperature incubation, the reaction was analyzed using a scintillation counter (Perkin Elmer Microbeta instrument). Binding data were analyzed using GraphPad Prism.

The subject of another experiment is mouse. Put plainly: Phenylbenzoquinone-induced (PBQ) writhing model. The conditions noted are these: dose 30 (unit not given), route IP, P < 0.001. Background: In writhing tests, fewer writhes than in controls are read as antinociception.
Setting [3] is: read-out: hCB1 IC50 (CP displ, nM, HEK), CP 55,940 displacement, HEK-293 membranes.
The mark [4] stands for this setting: read-out: hCB2 IC50 (CP displ, nM, HEK), CP 55,940 displacement, HEK-293 membranes.
Setting [5] is: GTPγS agonist mode, HEK-293 membranes, read-out: hCB2 EC50 (GTPyS ag, nM, HEK).
Where [6] appears, read: read-out: hCB2 EC50 (GTPyS ag, nM, HEK), GTPγS agonist mode, HEK-293 membranes.
Setting [7] is: CP 55,940 displacement, HEK-293 membranes, read-out: hCB1 IC50 (CP displ, nM, HEK).
The mark [8] stands for this setting: CP 55,940 displacement, HEK-293 membranes, read-out: hCB2 IC50 (CP displ, nM, HEK).

Like-named read-outs stand apart in the source and are kept apart here.

`Cc1c(C(=O)c2ccc(Cl)cc2Cl)c2ccsc2n1CCN1CCOCC1` [Compound I-15]: the IC50 was > 10000 nM on human CB1 (setting [3]) and 100 to 1000 nM on human CB2 [1] (setting [4]). Besides, the EC50 at human CB2 [2] (setting [5]) was 100 to 1000 nM.

With `Cc1c(C(=O)c2ccccc2)c2ccsc2n1CCN1CCOCC1` [Compound I-31], the concentration for half-maximal inhibition (IC50) on human CB1 (setting [3]) and on human CB2 [1] (setting [4]) was > 10000 nM each time.

As to `Cc1c(C(=O)c2cccc(Cl)c2Cl)c2scnc2n1CCN1CCOCC1` [Compound I-3], the IC50 on human CB1 (setting [3]) is 1000 to 10000 nM; on human CB2 [1] (setting [4]), < 100 nM. Further, the EC50 at human CB2 [2] (setting [5]) is < 100 nM.

Turning to `CCCn1c(C)c(C(=O)c2cccc(Cl)c2Cl)c2ccsc21` [Compound I-2], the values for the concentration for half-maximal inhibition (IC50) on human CB1 (setting [3]) and on human CB2 [1] (setting [4]) were > 10000 nM and 100 to 1000 nM, respectively. In addition, on human CB2 [2] (setting [5]), the EC50 was < 100 nM.

Take `Cc1c(C(=O)c2cccc(Cl)c2Cl)c2ccsc2n1CCN1CCOCC1` [Compound I-1, (2,3-dichlorophenyl)(5-methyl-6-(2-morpholinoethyl)-6H-thieno[2,3-b]pyrrol-4-yl)methanone]: the “Number of Writhes” value with mouse is 1.5 ± 0.79. Also, the IC50 on human CB1 is 1000 to 10000 nM; at human CB2 [1], < 100 nM. At human CB2 [2], the EC50 is < 100 nM.

As to `Cc1c(C(=O)c2cccc3c2OCC3)c2ccsc2n1CCN1CCOCC1` [Compound I-14], the 50% inhibitory concentration (IC50) on human CB1 (setting [3]) was 1000 to 10000 nM; at human CB2 [1] (setting [4]), 100 to 1000 nM. On human CB2 [2] (setting [5]), the EC50 was 100 to 1000 nM.

In the case of `CCCn1c(C)c(C(=O)c2cccc(Cl)c2Cl)c2scnc21` [Compound I-4], the IC50 was > 10000 nM at human CB1 (setting [3]) and 100 to 1000 nM on human CB2 [1] (setting [4]). Also, on human CB2 [2] (setting [5]), the EC50 is < 100 nM.

Regarding `Cc1c(C(=O)c2cccc(Cl)c2Cl)c2ccsc2n1CCC1CCOCC1` [Compound I-9], the IC50 is 100 to 1000 nM on human CB1 (setting [3]) and < 100 nM on human CB2 [1] (setting [4]). For the same compound, the EC50 on human CB2 [2] (setting [5]) is < 100 nM.

As to `CCCOc1ccccc1C(=O)c1c(C)n(CCN2CCOCC2)c2sccc12` [Compound I-27], the half-maximal inhibitory concentration (IC50) on human CB1 (setting [3]) was > 10000 nM; on human CB2 [1] (setting [4]), 1000 to 10000 nM.

As for `Cc1c(C(=O)c2cccc(Cl)c2)c2ccsc2n1CCN1CCOCC1` [Compound I-12], the IC50 on human CB1 (setting [3]) and on human CB2 [1] (setting [4]) was 1000 to 10000 nM each time.

Take `Cc1c(C(=O)c2cccnc2Cl)c2ccsc2n1CCN1CCOCC1` [Compound I-28]: the IC50 is > 10000 nM at human CB1 (setting [3]) and 1000 to 10000 nM at human CB2 [1] (setting [4]).

Consider `CCn1c(C)c(C(=O)c2cccc(Cl)c2Cl)c2ccsc21` [Compound I-30], for which the IC50 on human CB1 (setting [3]) is > 10000 nM; on human CB2 [1] (setting [4]) it was 1000 to 10000 nM. For the same compound, the EC50 at human CB2 [2] (setting [6]) fell in the range of 100 to 1000 nM.

`Cc1c(C(=O)c2cccc(Cl)c2Cl)c2ccsc2n1CC1CCCCN1C` (centres unmarked) [Compound I-20]: the 50% inhibitory concentration (IC50) at human CB1 (setting [3]) and on human CB2 [1] (setting [4]) was < 100 nM throughout. In addition, at human CB2 [2] (setting [5]), the EC50 is < 100 nM.

Take `Cc1c(C(=O)c2cccc(Cl)c2Cl)c2ccsc2n1CCC1CCN(C)CC1` [Compound I-25]: the IC50 on human CB1 (setting [3]) and on human CB2 [1] (setting [4]) was > 10000 nM throughout.

For the compound `CCS(=O)(=O)n1c(C)c(C(=O)c2cccc(Cl)c2Cl)c2ccsc21` [Compound I-21], the results for the IC50 on human CB1 (setting [7]) and at human CB2 [1] (setting [8]) were > 10000 nM and 1000 to 10000 nM, respectively.

On to `Cc1c(C(=O)c2cccc(Cl)c2Cl)c2cc(Cl)sc2n1CCN1CCOCC1` [Compound I-19], for which the results for the IC50 at human CB1 (setting [3]) and at human CB2 [1] (setting [4]) were 1000 to 10000 nM and < 100 nM, respectively. Also, on human CB2 [2] (setting [5]), the EC50 fell in the range of 100 to 1000 nM.

On to `Cc1c(C(=O)c2cccc(Cl)c2Cl)c2ccsc2n1CC(=O)N1CCOCC1` [Compound I-18], for which the IC50 was > 10000 nM at human CB1 (setting [3]) and 100 to 1000 nM on human CB2 [1] (setting [4]). In addition, the 50% effective concentration (EC50) at human CB2 [2] (setting [6]) fell in the range of 100 to 1000 nM.

With `Cc1c(C(=O)C2CCCCC2)c2ccsc2n1CCN1CCOCC1` [Compound I-24], the IC50 at human CB1 (setting [3]) was in the range of 1000 to 10000 nM; on human CB2 [1] (setting [4]) it was 100 to 1000 nM. Further, the EC50 at human CB2 [2] (setting [5]) is 100 to 1000 nM.

`Cc1c(C(=O)c2cccc(Cl)c2Cl)c2ccsc2n1CCC1CCN(C(=O)OC(C)(C)C)CC1` [Compound I-22]: the half-maximal inhibitory concentration (IC50) on human CB1 (setting [7]) and on human CB2 [1] (setting [8]) was > 10000 nM each time.

For `Cc1c(C(=O)c2cccc(F)c2F)c2ccsc2n1CCN1CCOCC1` [Compound I-11], the IC50 at human CB1 (setting [3]) is > 10000 nM; on human CB2 [1] (setting [4]), 1000 to 10000 nM. The EC50 at human CB2 [2] (setting [5]) fell in the range of 100 to 1000 nM.

Consider `COCCn1c(C)c(C(=O)c2cccc(Cl)c2Cl)c2ccsc21` [Compound I-10], for which the IC50 on human CB1 (setting [3]) was > 10000 nM; at human CB2 [1] (setting [4]), 100 to 1000 nM. For the same compound, the EC50 on human CB2 [2] (setting [5]) was 100 to 1000 nM.

For the compound `Cc1c(C(=O)c2cccc(Cl)c2Cl)c2ccsc2n1CC1CCOCC1` [Compound I-23], the results for the IC50 on human CB1 (setting [3]) and at human CB2 [1] (setting [4]) were 1000 to 10000 nM and < 100 nM, respectively. In addition, the EC50 on human CB2 [2] (setting [5]) is < 100 nM.

With `Cc1c(C(=O)c2cccc(Cl)c2Cl)c2sccc2n1CCN1CCOCC1` [Compound I-5], the IC50 on human CB1 (setting [3]) was 1000 to 10000 nM; at human CB2 [1] (setting [4]), < 100 nM. Further, the EC50 on human CB2 [2] (setting [5]) is < 100 nM.

In the case of `Cc1c(C(=O)c2cccc(Cl)c2Cl)c2ccsc2n1CCN1CCCCC1` [Compound I-17], the values for the IC50 at human CB1 (setting [3]) and on human CB2 [1] (setting [4]) were 1000 to 10000 nM and < 100 nM, respectively. For the same compound, the EC50 on human CB2 [2] (setting [5]) is < 100 nM.

Take `Cc1c(C(=O)C2C(C)(C)C2(C)C)c2ccsc2n1CCN1CCOCC1` [Compound I-8]: the IC50 at human CB1 (setting [3]) was 1000 to 10000 nM; at human CB2 [1] (setting [4]) it was 100 to 1000 nM. Moreover, the EC50 at human CB2 [2] (setting [5]) is < 100 nM.

Turning to `CCCn1c(C)c(C(=O)c2ccccc2)c2ccsc21` [Compound I-7], the IC50 at human CB1 (setting [7]) and at human CB2 [1] (setting [8]) was > 10000 nM in each case.
